{
  "source": "patent US20080166694A1",
  "about": "“Plant tissue packaging process” (priority 2007, published 2008)",
  "key": {"Cavendish bananas": {"test_system": "Cavendish bananas", "experiment": "Storage of harvested Cavendish bananas in banavac polyethylene bags in containers with or without ozone", "conditions": "Container 7: 200 to 300 parts per billion ozone in surrounding atmosphere; polyethylene bags tied closed; regular atmosphere (20.8 percent oxygen); 56 days of storage; versus Container 8 without ozone", "excerpt": "Experimental conditions included loading harvested Cavendish bananas in polyethylene bags (known as “banavac” bags) into two containers, both having a regular atmosphere (containing 20.8 percent oxygen), with vents partially opened for the first four weeks and completely closed for the last four weeks of the experimental period. The experimental difference between the containers was the maintenance of 200 to 300 parts per billion of ozone in Container 7, and the absence of ozone from Container 8.\nContainer 8 in the experiment detailed in FIG. 3 was loaded with bananas in modified atmosphere packaging (here, polyethylene bags tied closed with a knot). The bananas were stored in the container without added ozone. At 56 days after harvest, all of the bananas were spoiled to the point of liquefaction.\nContainer 7 in the experiment detailed in FIG. 3 was loaded with bananas in modified atmosphere packaging (here also, polyethylene bags tied closed with a knot). According to an embodiment of the present invention, the bags of bananas in Container 7 were exposed to a surrounding atmosphere containing an ozone level of 200 to 300 parts per billion."}, "bananas": {"test_system": "bananas", "experiment": "Addition of ozone to controlled-atmosphere and regular-atmosphere containers of bananas", "conditions": "ozone added", "experimental": "In another embodiment, a controlled-atmosphere shipping container is filled with bananas packaged in perforated bags, and ozone is added to the controlled atmosphere. If a non-ozonated controlled-atmosphere container is well sealed, ethylene will accumulate, offsetting the benefit of slowed respiration afforded by the controlled atmosphere."}},
  "data": [
    {"smiles": "O=[O+][O-]", "note": "[ozone]", "values": [
      {"measurement": "condition of the bananas after storage", "setting": "Cavendish bananas", "value": "markedly superior condition compared to that of the control bananas"},
      {"measurement": "climacteric ripening of bananas", "setting": "bananas", "value": "delay climacteric ripening of bananas"},
      {"measurement": "overall ethylene levels in containers", "setting": "bananas", "value": "reduce overall ethylene levels"}
    ]}
  ]
}
